Laboratory results: US8952024B2, “Herbicidal pyrimidone derivatives” (E I du Pont de Nemours and Company, priority 2009, dated 2015)

Columns and labels:
Type in all cases: in vivo
[1] = tested on: ragweed (common ragweed, Ambrosia elatior); test: Test B pre-/postemergence plant response; settings: Postemergence
Method in brief: (§1)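 Ratings reflect visual comparison with untreated controls 13 to 15 days after application, from 0 (no effect) to 100 (complete control). Application was preemergence to seeded loam/sand soil or postemergence to 1- to 4-leaf plants, with compound in a non-phytotoxic, surfactant-containing solvent.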

kochia (Kochia scoparia) = test: Test B pre-/postemergence plant response; settings: Postemergence
Method in brief: as §1

wild oat (Avena fatua) = test: Test B pre-/postemergence plant response; settings: Postemergence
Method in brief: as §1

soybean (Glycine max) = test: Test B pre-/postemergence plant response; settings: Postemergence
Method in brief: as §1

[2] = tested on: cocklebur (Xanthium strumarium); test: Test B pre-/postemergence plant response; settings: Postemergence
Method in brief: as §1

[3] = tested on: pigweed (Amaranthus retroflexus); test: Test B pre-/postemergence plant response; settings: Postemergence
Method in brief: as §1

[4] = tested on: johnsongrass (Sorghum halepense); test: Test B pre-/postemergence plant response; settings: Postemergence
Method in brief: as §1

[5] = tested on: bermudagrass (Cynodon dactylon); test: Test B pre-/postemergence plant response; settings: Postemergence
Method in brief: as §1

[6] = tested on: giant foxtail (Setaria faberii); test: Test B pre-/postemergence plant response; settings: Postemergence
Method in brief: as §1

corn (Zea mays) = test: Test B pre-/postemergence plant response; settings: Postemergence
Method in brief: as §1

[7] = tested on: lambsquarters (Chenopodium album); test: Test B pre-/postemergence plant response; settings: Postemergence
Method in brief: as §1

[8] = tested on: green foxtail (Setaria viridis); test: Test B pre-/postemergence plant response; settings: Postemergence
Method in brief: as §1

rice (Oryza sativa) = test: Test B flooded paddy test; settings: for Plant response rating, Rice: Flood (flooded paddy test), 13 to 15 days
Method in brief: (§2)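 Plants were grown to the 2-leaf stage, then pots were flooded to 3 cm above the soil and compounds were applied directly into the paddy water. That depth was held throughout. After 13 to 15 days in a greenhouse, injury was visually rated against controls on a 0–100 scale.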

[9] = tested on: barnyardgrass (Echinochloa crus-galli); test: Test B flooded paddy test; settings: for Plant response rating, Barnyardgrass: Flood (flooded paddy test), 13 to 15 days
Method in brief: as §2

[10] = tested on: umbrella sedge (Cyperus difformis); test: Test B flooded paddy test; settings: for Plant response rating, Sedge, Umbrella: Flood (flooded paddy test), 13 to 15 days
Method in brief: as §2

[11] = tested on: ducksalad (Heteranthera limosa); test: Test B flooded paddy test; settings: for Plant response rating, Ducksalad: Flood (flooded paddy test), 13 to 15 days
Method in brief: as §2

[12] = 31 g ai/ha, 0 to 100 scale (0 no effect, 100 complete control)
[13] = 250 g ai/ha, scale 0 to 100 (0 no effect, 100 complete control), 13 to 15 days
[14] = 62 g ai/ha, scale 0 to 100 (0 no effect, 100 complete control)
[15] = 125 g ai/ha, scale 0 to 100 (0 no effect, 100 complete control)
[16] = 250 g ai/ha, flooded paddy test, visual rating on 0 to 100 scale (0 no effect, 100 complete control) after 13 to 15 days
[17] = 62 g ai/ha, scale of 0 to 100 where 0 is no effect and 100 is complete control
[18] = 125 g ai/ha, scale 0 to 100, 0 is no effect, 100 is complete control
[19] = Flood, 31 g ai/ha, scale 0 to 100 (0 no effect, 100 complete control)

SMILES: CCCn1c(-c2ccccc2)ncc(C(=O)C2=C(O)C3CCC(C3)C2=O)c1=O (stereo not drawn) [Compound 226]
- Plant response rating, Ragweed [1, 12]: 80
- Plant response rating, Ragweed [1, 13]: 90
- Plant response rating, Ragweed [1, 14]: 85
- Plant response rating, Kochia (kochia (Kochia scoparia); [12]): 80
- Plant response rating, Kochia (kochia (Kochia scoparia); [15]): 100
- Plant response rating, Kochia (kochia (Kochia scoparia); [13]): 100
- Plant response rating, Kochia (kochia (Kochia scoparia); [14]): 85
- Plant response rating, Oat, Wild (wild oat (Avena fatua); [12]): 25
- Plant response rating, Oat, Wild (wild oat (Avena fatua); [13]): 50
- Plant response rating, Oat, Wild (wild oat (Avena fatua); [14]): 30
- Plant response rating, Soybean (soybean (Glycine max); [12]): 95
- Plant response rating, Soybean (soybean (Glycine max); [13]): 100
- Plant response rating, Soybean (soybean (Glycine max); [14]): 98
- Plant response rating, Cocklebur [2, 12]: 98
- Plant response rating, Cocklebur [2, 15]: 100
- Plant response rating, Cocklebur [2, 13]: 100
- Plant response rating, Cocklebur [2, 14]: 98
- Plant response rating, Pigweed [3, 12]: 75
- Plant response rating, Pigweed [3, 13]: 98
- Plant response rating, Pigweed [3, 14]: 85
- Plant response rating, Johnsongrass [4, 12]: 85
- Plant response rating, Johnsongrass [4, 15]: 100
- Plant response rating, Johnsongrass [4, 13]: 100
- Plant response rating, Johnsongrass [4, 14]: 85
- Plant response rating, Bermudagrass [5, 12]: 80
- Plant response rating, Bermudagrass [5, 15]: 85
- Plant response rating, Bermudagrass [5, 13]: 98
- Plant response rating, Bermudagrass [5, 14]: 80
- Plant response rating, Foxtail, Giant [6, 12]: 85
- Plant response rating, Foxtail, Giant [6, 15]: 95
- Plant response rating, Foxtail, Giant [6, 13]: 95
- Plant response rating, Foxtail, Giant [6, 14]: 90
- Plant response rating, Corn (corn (Zea mays); [12]): 75
- Plant response rating, Corn (corn (Zea mays); [15]): 98
- Plant response rating, Corn (corn (Zea mays); [13]): 98
- Plant response rating, Corn (corn (Zea mays); [14]): 80
- Plant response rating, Lambsquarters [7, 12]: 90
- Plant response rating, Lambsquarters [7, 15]: 95
- Plant response rating, Lambsquarters [7, 13]: 98
- Plant response rating, Lambsquarters [7, 14]: 90
- Plant response rating, Foxtail, Green [8, 12]: 70
- Plant response rating, Foxtail, Green [8, 15]: 90
- Plant response rating, Foxtail, Green [8, 13]: 90
- Plant response rating, Foxtail, Green [8, 14]: 80
- Plant response rating, Flood, Rice (rice (Oryza sativa); [16]): 65
- Plant response rating, Rice (rice (Oryza sativa); [17]): 40
- Plant response rating, Rice (rice (Oryza sativa); [18]): 60
- Rice plant response rating (rice (Oryza sativa); [19]): 20
- Plant response rating, Flood, Barnyardgrass [9, 16]: 95
- Plant response rating, Barnyardgrass [9, 17]: 60
- Plant response rating, Barnyardgrass [9, 18]: 95
- Barnyardgrass plant response rating [9, 19]: 50
- Plant response rating, Flood, Sedge, Umbrella [10, 16]: 60
- Plant response rating, Sedge, Umbrella [10, 17]: 40
- Plant response rating, Sedge, Umbrella [10, 18]: 50
- Sedge, Umbrella plant response rating [10, 19]: 30
- Plant response rating, Flood, Ducksalad [11, 16]: 40
- Plant response rating, Ducksalad [11, 17]: 0
- Plant response rating, Ducksalad [11, 18]: 30
- Ducksalad plant response rating [11, 19]: 0
